From patent publication US20120283313A1, “INHIBITION AND TREATMENT OF PROSTATE CANCER METASTASIS” (NORTHWESTERN UNIVERSITY, priority 2007, published 2012)
Entries after “also recorded” stand apart in the source; their conditions may differ. Where two headings read alike, the source gives them in different places.

Columns and labels:
[1] = men, 2 mg genistein/kg/day for 1 month
[2] = test system: prostate epithelial cells; experiment: Phase 2 trial: LCM and 12K gene array of prostate epithelial cells; format: in vivo, human
From the text: In particular, methodology was employed wherein prostate epithelial cells are selectively removed from human prostate tissue by laser capture microdissection (LCM), the resultant RNA linear amplified, and custom manufactured 12K gene arrays are probed. Ding, et al., Id.

[3] = test system: human prostate cancer (PCa) cell lines; experiment: cell invasion assay of PCa cell lines with genistein / siMEK4; format: cell-based
From the text: MEK expression was examined in six human prostate cancer (PCa) cell lines: PC3 and PC3-M metastatic PCa cells, 1532CPTX and 1542 CPTX immortalized localized PCa cells, and 1532 NPTX and 1542 NPTX immortalized normal epithelial cells. The last four cell lines are primary cells, are HPV transformed, and thus represent early stages of prostate carcinogenesis. They provide representative members of the metastatic phenotype, as well as members of early state phenotypes. […] All six cell lines also secrete as well as respond to TGFβ, a regulator of cell motility that plays a role in PCa cell invasiveness.
Assays were conducted using methods as described in Craft et al. (2008, Mol. Pharmocol., 73(1):235-242; herein incorporated by reference in its entirety).

MMP-2 = experiment: Phase 2 trial: MMP-2 transcript levels by LCM and qRT/PCR; format: in vivo, human; settings: normal prostate epithelial cells, 2 mg genistein/kg/day, normalized to GAPDH
human PC3-M PCa cells = experiment: orthotopic PC3-M implantation metastasis model in athymic mice
[4] = mice, free about a tenth of total
MEK4 = experiment: TGFβ stimulated phosphorylation of MEK4 in vivo; format: cell-based
Protocol: Phosphorylation by MEK4 (FIG. 4A) and phosphorylation of MEK4 (FIG. 7) was assayed. The Upstate Biotechnology MEK4 assay system was used to measure inhibition of MEK4 activity. Phosphorylation of MEK4 in vivo was assayed using standard techniques.

[5] = test system: prostate epithelial cells; experiment: Phase 2 trial: nuclear morphology of prostate epithelial cells; format: in vivo, human; settings: men, genistein treated vs controls
From the text: Though morphologically “normal,” these cells are present within organs with PCa, have pre-cancer molecular changes, and represent an appropriate target cell type for therapy that inhibits a process associated with PCa progression, in this case, development of the metastatic phenotype. […] These findings are consistent with its effects in vitro and in mice.

p38 MAP kinase = experiment: Western blot of primary tumor tissue for p38 MAP kinase; format: in vivo, mice; settings: fresh frozen primary tumor tissue
PC3M cells = experiment: quantitative image analysis of nuclear morphology, mouse tissue; format: in vivo, mice; settings: 250 mg genistein vs controls
From the text: Change in cell morphology is a generally recognized measure of change in cell adhesion. Compounds which increase cell adhesion of prostate cancer cells in vivo may inhibit prostate cancer metastasis. […] Quantitative image analysis according to established methods was used to measure in vivo changes in nuclear morphology in the prostate. (Bartels, et al., Prostate, 48:144-55, (2001); Boone, et al., Urology, 57:129-31 (2001); Bartels, et al., Anal. Quant. Cytol. Histol. 20:397-406 (1998); Bartels et al., Anal. Quant. Cytol. Histol. 20:389-96; Veltri, et al., J. Cell Biochem. Suppl., 151-57 (2000); herein incorporated by reference in their entireties).
Mouse: From the mouse experiment of Example 5, primary (prostate gland) and metastatic (local lymph nodes) tissue was Feulgen-stained, and the nuclear morphology of PC3M cells was quantitated on a ChromaVision ACIS® II Image Analysis System. […] Specifically, for lymph node: cell area increased by 19.5±2.1%, cell length by 9.1±1.1%, and cell width by 9.5±1.1% (p:S 0.01 for all). For primary tumor: cell length increased by 3.0±1.1% (p:S 0.05).

[6] = men, 2 to 8 mg genistein/kg; cited from earlier work

## O=c1c(-c2ccc(O)cc2)coc2cc(O)cc(O)c12 [genistein]
[1]
  trough concentration of free genistein, mean±SEM: 26.6 ± 6.6 nM
[2]; MALATI, genistein-treated subjects
  gene array expression level, mean (SE): 8.22 (0.87)
[2]; brain acid-soluble protein 1, genistein-treated subjects
  gene array expression level, mean (SE): 13.3 (0.34)
[2]; heat shock protein 90, genistein-treated subjects
  gene array expression level, mean (SE): 8.51 (0.5)
[2]; heparin cofactor II, genistein-treated subjects
  gene array expression level, mean (SE): 2.19 (0.21)
[2]; prostate acid phosphatase, genistein-treated subjects
  gene array expression level, mean (SE): 6.85 (0.49)
[2]; sorbitol dehydrogenase, genistein-treated subjects
  gene array expression level, mean (SE): 5.33 (0.59)
[3]; PCa cells, genistein plus siMEK4
  effect of genistein on invasiveness when MEK4 expression suppressed by siMEK4: the effect of genistein was abrogated
[3]; early and late stage PCa cell lines, presence of genistein
  invasion of PCa cells: inhibits invasion of both early and late stage PCa cells
MMP-2
  MMP-2 transcript level, percent of controls (mean±SEM): 24±4.1%
Human PC3-M PCa cells; 0, 100, 250 mg genistein/kg chow
  tumor volume: but not tumor volume
Human PC3-M PCa cells; between dosing cohorts
  weight of mice: no difference in the weight of mice between cohorts
[4]; 100 mg cohort
  estimated free concentration: 29 nM
[4]; 250 mg cohort
  estimated free concentration: 131 nM
MEK4
  TGFβ stimulated phosphorylation of MEK4: does not block TGF-β stimulated phosphorylation of MEK4 itself; also recorded: does not block such phosphorylation
[5]
  increase in length (nuclear morphology): 1.5±0.7%
  increase in width (nuclear morphology): 2.7±0.7%
[5]; only a trend
  increase in area (nuclear morphology): 2.0±1.0%
p38 MAP kinase
  level of total p38 MAP kinase protein: total amount of p38 MAP kinase increased
  phosphorylation of p38 MAP kinase: decreasing phosphorylation of p38 MAP kinase; also recorded: decreased its phosphorylation
PC3M cells; lymph node
  increase in cell area: 19.5±2.1%
  increase in cell length: 9.1±1.1%
  increase in cell width: 9.5±1.1%
PC3M cells; primary tumor
  increase in cell length: 3.0±1.1%
[6]
  peak concentration of total genistein: 4.3 to 16.3 nM
